Assay results as given in US7662776B2, “Treatment of tumors using short peptides from human chorionic gonadotropin (HCG)” (Biotempt B.V., priority 2005, dated 2010).
Entries after “also recorded” stand apart in the source; their conditions may differ. Peptide text beside a SMILES is read from it.

Assays:
Format in all cases: in vivo, Mice (C57B16)
[1] = system: Lewis Lung Carcinoma (LLC); experiment: Tumor response in mice bearing LLC tumor during and after treatment with small peptides (Example II); conditions: for tumor growth curves compared with thalidomide: FIG. 1; for tumor growth curves compared with thalidomide / effect on tumor growth: result in words; for tumor volume day 21: average tumor volume on day 21, s.c. LLC, i.p. injection Mon/Wed/Fri; for tumor volume day 21 / mice showing a tumor response: 6 mice per group; for tumor control: mice with complete tumor control for 56 days / mice in group; for Response rate CR: number of mice with complete response; for Response rate CR / Response rate NC / Response rate PR / Response rate PD: of 6; for Response rate NC: number of mice with no change (stable disease); for Response rate PR: number of mice with partial remission; for Response rate PD: number of mice with progressive disease; for mice showing a tumor response: response = maximally a growth of 25% within seven days; for effect on tumor growth: i.p. peptide, LLC tumor
Protocol: Animals and tumor model: Mice (C57B16) are transplanted with the syngeneic Lewis Lung Carcinoma (LLC) subcutaneously.
Treatment modalities: mice are treated with small peptides or control substances beginning on the day of transplantation by i.p. injection. Mice are injected on Monday, Wednesday and Friday, until end of experiment. Experiment ends are based on: tumor size >20 mm, suffering of the animal, weight loss over 20%, ulcerations etc. Otherwise the experiment is terminated eight weeks after start.
Tumor diameter is measured in two directions by caliper measurements and tumor volume (V) is calculated using the formula V=0.4(A^2×B) (where B represents the largest diameter and A the diameter perpendicular to B). The classification of tumor response is: progressive disease (PD), increase of tumor volume (>50%) within seven days (between day 3 and day 10 after begin of treatment); stable disease, tumor volume equal to volume at day 3 in a range of −25% and +25%; partial remission (R), tumor volume −25% to −90%, and complete response CR, (no) measurable tumor at 56 days after start of treatment.
Tumor growth evaluation is terminated when a tumor diameter of 20 mm is reached.
Mice were treated with i.p. injections of peptides 24 hours after implantation of LLC tumor. In all mice receiving PBS tumor developed which reached on average a tumor volume of 1600 mm^3 in 21 days. Approximately tumor diameter was at that time point 16 mm. Thalidomide was used as a positive control.

[2] = system: Lewis Lung Carcinoma (LLC); experiment: Escalating doses of peptide LQGV in Lewis Lung Carcinoma-bearing mice (Example III); conditions: for PD: number of mice with progressive disease (outgrowth); for TR: number of mice with tumor response (growth delay till day 20); for RR: tumor response rate
Protocol: FIG. 3 Tumor volume of Lewis Lung Carcinoma-bearing C57B16 mice treated with escalating doses of peptide LQGV (SEQ ID NO:1). Doses of 1.7, 5, 17, 50 and 170 mg/kg were tested.
Animals and tumor model. Mice (C57B16) are transplanted with the syngeneic Lewis Lung Carcinoma (LLC) subcutaneously. Treatment is stared 24 hours after implantation. The number of animals is eight per group to increase the power of this study. As we are starting the treatment when no tumor is palpable the change of error is larger compared to a study with established tumors. Treatment modalities: mice are treated with small peptides or sham control beginning one day after transplantation by i.p. injection. Mice will be injected on Monday, Wednesday and Friday, until end of experiment. Experiment ends based on criteria as tumor size >20 mm, suffering of the animal, weight loss over 20%, ulcerations. Otherwise the experiment will be terminated eight weeks after start.
Tumor diameter is measured in two directions by caliper measurements and tumor volume (V) is calculated using the formula V=0.4(A2×B) (where B represents the largest diameter and A the diameter perpendicular to B). The classification of tumor response is: progressive disease (PD), increase of tumor volume (>25%) within seven days; no change (NC), tumor volume equal to volume at start of treatment in a range of −25% and +25%; partial remission (PR), decrease of tumor volume between −25% and −90%; complete remission (CR), tumor volume less than 10% of initial volume. Tumor growth evaluation is terminated when a tumor diameter of 20 mm is reached.
Tumor volumes were analyzed using non-parametric testing for multiple groups (Kruskal Wallis) and pair wise comparison of the different groups using Mann Whitney.
Tumor response was evaluated slightly differently from proposed. As we start shortly after tumor induction, shrinkage of the tumor compared to before treatment cannot be made. […] So during the experimental time-frame outgrowth (progressive disease, PD) and tumor response (TR, growth delay till day 20) was evaluated. In Table 3 response rates are depicted.

[3] = Toxicity during escalating dose experiment: animal weight, blood markers, leukocyte count (Example III)
Protocol: FIG. 5. During the escalating dose experiment toxicity of LQGV (SEQ ID NO:1) was evaluated by evaluation of blood markers for kidney and liver function and leukocyte count.
FIG. 6. During the escalating dose experiment toxicity of LQGV (SEQ ID NO:1) was evaluated by monitoring of animal weight.
Assessment of side-effects. Side-effects are monitored on daily basis. a) Weight of the animals is monitored daily. b) Behavior of the animals is observed. c) Animals are checked for possible side effects such as diarrhea.
During the experiment toxicity of the administered peptides was evaluated by monitoring of animal weight (FIG. 6) and by evaluation of blood markers for kidney and liver function and leukocyte count (FIG. 5). […] It is important to compare not only between the groups but also within the groups between individual mice.

[4] = escalating dose experiment, FIG. 5

## CC(C)C[C@H](N)C(=O)N[C@@H](CCC(N)=O)C(=O)NCC(=O)N[C@H](C(=O)O)C(C)C [LQGV, Leu Gln Gly Val] (H-LQGV-OH)
[1]
  tumor growth curves compared with thalidomide: comparable to Thalidomide; also recorded: comparable tumor growth curves
  tumor volume day 21: 270 mm^3
  tumor control: 2/6
  Response rate CR: 2
  Response rate NC: 2
  Response rate PR: 1
  Response rate PD: 1
  mice showing a tumor response: five out of six
  effect on tumor growth: strong tumor growth delay
[2]; 1.7 mg/kg i.p.
  PD: 9
  TR: 2
  RR: 18%
[2]; 5 mg/kg i.p.
  PD: 4
  TR: 7
  RR: 64%
[2]; 17 mg/kg i.p.
  PD: 2
  TR: 9
  RR: 82%
[2]; 50 mg/kg i.p.
  PD: 4
  TR: 7
  RR: 64%
[2]; 50 mg/kg, result in words
  effect on tumor growth: strongly inhibited tumor growth
[2]; 170 mg/kg i.p.
  PD: 4
  TR: 7
  RR: 64%
[2]; dose of 5 mg/kg, result in words
  effect on tumor growth: a delay in tumor growth was observed
[2]; higher dosages (above 5 mg/kg), result in words
  delay in tumor growth relative to 5 mg/kg: more pronounced
[3]; at all doses (1.7-170 mg/kg), FIG. 6
  effect on animal weight: no effect on animal weight
[3]; [4]
  effect on leukocyte number: no effect on leukocyte number
  effect on liver and kidney parameters (blood markers): did not affect the liver and kidney parameters

## O=C1CCC(N2C(=O)c3ccccc3C2=O)C(=O)N1 (stereo not drawn) [Thalidomide, reference compound]
[1]
  tumor volume day 21: 340 mm^3
  tumor control: 3/6
  Response rate CR: 2
  Response rate NC: 3
  Response rate PR: 1
  mice showing a tumor response: all animals
[2]; positive control group, result in words
  effect on tumor growth: only some tumor growth delay

## Ala Gln Gly Val (AQGV; Chemically synthesized antitumor peptide AQGV) [4-mer peptide, derivative of LQGV]
[1]
  tumor volume day 21: 1030 mm^3
  tumor control: 2/6
  Response rate NC: 1
  Response rate PR: 2
  Response rate PD: 3
  effect on tumor growth: tumor growth delay

## LAG
[1]
  tumor volume day 21: 1550 mm^3
  tumor control: 2/6
  Response rate CR: 1
  Response rate PR: 1
  Response rate PD: 4

## LQG
[1]
  tumor growth curves compared with thalidomide: comparable to Thalidomide; also recorded: comparable tumor growth curves
  tumor volume day 21: 620 mm^3
  tumor control: 3/6
  Response rate CR: 2
  Response rate NC: 4
  mice showing a tumor response: all animals
  effect on tumor growth: tumor growth delay

## Leu Ala Gly Val (LAGV; Chemically synthesized antitumor peptide LAGV) [4-mer peptide, derivative of LQGV]
[1]
  tumor volume day 21: 1600 mm^3
  tumor control: 2/6
  Response rate CR: 1
  Response rate NC: 1
  Response rate PR: 1
  Response rate PD: 3

## VLPALP (Chemically synthesized antitumor peptide VLPALP) [6-mer peptide]
[1]
  tumor volume day 21: 880 mm^3
  tumor control: 3/6
  Response rate CR: 2
  Response rate NC: 2
  Response rate PR: 1
  Response rate PD: 1
  mice showing a tumor response: five out of six
  effect on tumor growth: tumor growth delay
